Our source for the TGI and GI50 values is PubChem BioAssay (NCI).

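Where inhibition never reached the appropriate level, the endpoint shown equals the highest concentration tested. Otherwise, values were interpolated linearly from a five-concentration, 48-hour dose response in 96-well plates. GI50: concentration for 50% inhibition of growth. TGI is the concentration that stops growth completely.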

Test in all cases: DTP human tumour cell line panel, 48 h
The test system of assay [1] is OVCAR-4 ovarian.
The subject of assay [2] is SF-539 CNS.
For assay [3], the system named is UO-31 renal.
In assay [4] the test system is SF-295 CNS.
For assay [5], the system named is MOLT-4 leukemia.
Assay [6] has as its system A549 NSCLC.
The subject of assay [7] is CCRF-CEM leukemia.
Assay [8] has as its system M14 melanoma.
In assay [9] the test system is EKVX NSCLC.
The subject of assay [10] is TK-10 renal.

As usually defined, the TGI is the concentration giving total growth inhibition. The low end stands for more potent growth arrest, the high end for less potent growth arrest. Consider `CC1(CCc2ccccc2)CC1(Br)Br` (configuration not stated), for which the TGI was more than 100 µM in assay [1]; more than 100 µM in assay [2]; more than 100 µM in [3]; more than 100 µM in [4]; 56 µM in assay [5]; more than 100 µM in assay [6]. Besides, the figures for the TGI in assay [7], in assay [8] and in [9] were 67.7 µM, more than 100 µM and 40 µM, respectively.

For `CSc1nc2c(c(=O)n1C)N=C(c1ccc(Cl)cc1)CC(c1ccccc1)N2` (configuration not stated), the TGI in assay [1] was 23.7 µM; in assay [2], 31.7 µM; in assay [3] it was more than 100 µM; in assay [4] it was 53.1 µM; in assay [5] it was 53.9 µM; in assay [6], 73.7 µM. Moreover, the TGI stood at 72.6 µM in assay [7], 34.7 µM in assay [8] and 65.1 µM in [9].

Consider `CN(C)Cc1cc(C(C)(C)C)cc(CNC2CCCCC2)c1O`, for which the TGI in assay [1] was more than 100 µM; in assay [2], 63.5 µM; in assay [3], 34.6 µM; in assay [4] it was 57.1 µM; in [5], 33.5 µM; in assay [6], more than 100 µM. Moreover, the TGI is more than 100 µM in [10], 43.7 µM in assay [7], 34.4 µM in [8] and more than 100 µM in assay [9].

As to `COc1ccc(-c2cc(C3CC3)nc(SCC(=O)O)c2C#N)cc1`, the TGI was more than 100 µM in assay [1]; more than 100 µM in [2]; 11.1 µM in assay [3]; more than 100 µM in assay [4]; more than 100 µM in [5]; more than 100 µM in assay [6]. Moreover, the concentration for total growth inhibition (TGI) in [10], in assay [7], in assay [8] and in assay [9] was more than 100 µM throughout.

With `C/C=C1/CN2[C@@H](C3=C[C@@H]4[C@@H]5N(C3=O)c3ccccc3[C@@]53CCN5C/C(=C/C)[C@@H]4C[C@H]53)C[C@@]34c5ccccc5N5C(=O)CC=C([C@H]1C[C@H]23)[C@H]54`, the TGI came to 19.9 µM in assay [1]; 2.87 µM in assay [2]; 8.34 µM in assay [3]; 16.4 µM in assay [4]; 6.28 µM in assay [5]; 15.3 µM in assay [6]. Besides, the TGI in assay [10] came out at 15 µM; in assay [7] it was 2.94 µM; in assay [8], 2.37 µM; in [9] it was 12.1 µM.

In general, GI50 refers to the concentration at which growth is held to half of that of the control. Consider `COc1cc(C(=O)O[C@H](C(=O)NCCNC(=O)[C@@H](OC(=O)c2cc(OC)cc3c(C)cccc23)[C@]2(C)CO2)[C@]2(C)CO2)c2cccc(C)c2c1`, for which the GI50 in [1] was 0.125 µM; in assay [2], less than 0.0348 µM; in assay [3] it was 0.137 µM; in [4], 0.173 µM; in assay [5], less than 0.01 µM; in assay [6] it was less than 0.0428 µM. The GI50 in assay [10] is 0.475 µM; in [7], less than 0.01 µM; in assay [8], 0.178 µM; in assay [9], 0.21 µM. The TGI was more than 100 µM in assay [1]; 0.371 µM in [2]; 0.793 µM in assay [4]; more than 100 µM in [5]; 1.25 µM in [6]; 1.9 µM in [10]. The TGI worked out at 0.696 µM in assay [8] and 1.55 µM in assay [9].

As for `N#Cc1ccc(OC(=O)c2ccc(N=C(N)N)cc2)cc1`, the TGI in [1], in [2], in assay [3], in assay [4], in [5] and in assay [6] was more than 100 µM each time. The TGI is more than 100 µM in assay [10], 54.8 µM in assay [7], more than 100 µM in [8] and more than 100 µM in [9].

On to `c1ccc2c(c1)CCN(C1=NCCO1)C2`, for which the TGI in [1], in assay [2], in assay [3], in [4], in assay [5] and in assay [6] was more than 10 µM each time. Moreover, the TGI in assay [10], in assay [7], in assay [8] and in [9] was more than 10 µM throughout.

In the case of `O=C1c2n[nH]nc2C(=O)c2n[nH]nc21`, the TGI in assay [1], in assay [2], in [3], in assay [4], in [5] and in [6] was more than 100 µM each time. Moreover, the TGI in assay [10], in assay [7], in assay [8] and in assay [9] was more than 100 µM in each case.

`CCOP(=O)(CC1CC(O)(CNc2cc(Cl)nc(N)n2)C1)OCC` (configuration not stated): the TGI in assay [1], in [2], in [3], in assay [4], in assay [5] and in [6] was more than 100 µM throughout. Moreover, the TGI in assay [10], in assay [7] and in [9] was more than 100 µM in each case.

In the case of `C\C=C/C=C/C=C/C(=O)O`, the total growth inhibition concentration (TGI) in assay [1], in assay [2], in assay [3], in assay [4], in [5] and in assay [6] was more than 100 µM throughout. Moreover, the TGI in [7], in [8] and in assay [9] was more than 100 µM in each case.

For the compound `NC(CCl)=NC1CN2CCC1CC2` (configuration not stated), the concentration for total growth inhibition (TGI) in [1], in assay [2], in [4], in assay [5], in assay [6] and in assay [10] was more than 100 µM throughout. Besides, the TGI in [7], in assay [8] and in assay [9] was more than 100 µM in each case.

For `CC(/C=N/N(C)C1=NCCCCN1)=N/N(C)C1=NCCCCN1`, the TGI in [1], in assay [2], in assay [3], in assay [4], in assay [5] and in [6] was more than 100 µM in each case. Moreover, the TGI in assay [10], in assay [7] and in [9] was more than 100 µM in each case.
